Data as given in patent publication US20090130194A1, “Methods of Treating Cancer with High Potency Lipid-Based Platinum Compound Formulations Administered Intravenously” (Transave, Inc., priority 2005, published 2009).

What was measured:
[1] = Pharmacokinetics and organ distribution of ip and iv injected L-CDDP and CDDP (platinum by ICP-MS); format: in vivo, ICR mice; settings: 8 mg/kg
Protocol: Pharmacokinetics and organ distribution in animals of ip and iv injected lipid-complexed cisplatin and cisplatin (Part II). Sixty ICR mice (female, 7 weeks old) were divided into 4 groups. They received intraperitoneal or intravenous injection of L-CDDP or CDDP, separately. The dose was 12 mg/kg for ip L-CDDP and 8 mg/kg for the rest of treatment groups. At each designed time point, three to four mice were anaesthetized with 70 mg/kg of Nembutal ip (e.g., 3, 20, and 40 min, and 2, 8, 24, 48, and 72 h). […] Organs including liver, lung, and spleen were resected from the mice. The organ samples were homogenized in distilled water (4-fold of the sample weight) and digested with nitric acid. The platinum concentration in each sample was measured by Inductively Coupled Plasma-Mass Spectrometer (ICP-MS). The pharmacokinetics profiles (FIGS. 4, 5, and 6, all Y-axes are concentration of μg platinum in one gram of tissue or fluid per mg of injected dose) and parameters (Table 2) of each formulation were simulated and calculated.

[2] = Nephrotoxicity: blood urea nitrogen (BUN); format: in vivo; settings: MTD
Description: Nephrotoxicity. ICR mice, 7 weeks old, female, were divided into 4 groups with 3 to 4 mice in each. […] Four days after the injection, the mice were euthanized with Nembutal ip. The blood was drawn and the serum was isolated. The blood urea nitrogen (BUN) was quantitatively measured with a calorimetric method at Antech Diagnostics. Organs including duodenum, heart, kidney, liver, lung, and spleen were resected from the mice and fixed with 10% buffered Formalin. The fixed tissues were processed with standard procedure for H and E staining. A pathology expert Dr. Carman Tornos at the Memorial Sloan-Kettering Cancer Center examined kidney tissues and gave a toxicity grade to each kidney tissue sample. The grading was based on the general pathology guidelines for kidney toxicity.

N.N.[Cl][Pt][Cl] [CDDP, cis diamminedichloroplatinum]
AUC, Liver [1]: 19.96 µg·h/g/µg | AUC, Lung [1]: 5.58 µg·h/g/µg | AUC, Spleen [1]: 8.11 µg·h/g/µg | Cmax, Liver [1]: 0.74 µg/g/µg | Cmax, Lung [1]: 0.28 µg/g/µg | BUN level change (in words) ([2]; either route): increase | BUN level increase compared with normal controls ([2]; ip, 4 days after injection, p=0.04): 2.1 fold
